Consider one compound from DBAASP.

Test systems include Alternaria brassicicola; Aspergillus fumigatus; Beauveria bassiana; Botrytis cinerea; Fusarium culmorum; Fusarium haematococcum; Fusarium oxysporum; Neurospora crassa; Trichoderma viride.
What all share (assay): ≥ marks a high value that may be exact or a test limit, other limits are often not marked, values filed in µg/mL are converted to µM
In assay [1] the test system is Trichophyton mentagrophytes.

In brackets after ≈: the same amount, converted by molar mass.

As a reminder, the MIC is the lowest concentration that inhibits growth of the organism. Consider `CC[C@H](C)[C@H](NC(=O)[C@H](Cc1cnc[nH]1)NC(=O)[C@H](CCC(=O)O)NC(=O)CNC(=O)[C@H](Cc1cnc[nH]1)NC(=O)[C@H](CC(N)=O)NC(=O)[C@H](Cc1ccccc1)NC(=O)[C@@H](NC(=O)[C@H](CCCCN)NC(=O)[C@@H](NC(=O)[C@H](CCC(N)=O)NC(=O)[C@@H](NC(=O)[C@H](Cc1cnc[nH]1)NC(=O)CNC(=O)[C@H](Cc1ccccc1)NC(=O)[C@H](CC(N)=O)NC(=O)[C@@H]1CCCN1C(=O)[C@H](CC(C)C)NC(=O)[C@H](CC(=O)O)NC(=O)[C@H](CCC(=O)O)NC(=O)[C@@H](N)Cc1ccccc1)[C@@H](C)CC)C(C)C)C(C)C)C(=O)N[C@@H](Cc1cnc[nH]1)C(=O)N[C@@H](Cc1cnc[nH]1)C(=O)O` [FEDLPNFGHIQVKVFNHGEHIHH], for which the MIC was 6.25 µM (≈ 17.2 µg/mL) in the assay on Alternaria brassicicola; ≥ 100 µM in the assay on Aspergillus fumigatus; ≥ 100 µM against Beauveria bassiana; ≥ 100 µM in the assay with Botrytis cinerea; 12.5 µM (≈ 34.4 µg/mL) against Fusarium culmorum; 6.25 µM (≈ 17.2 µg/mL) in the assay with Fusarium haematococcum. Besides, the MIC against Fusarium oxysporum was 12.5 µM (≈ 34.4 µg/mL); with Neurospora crassa, ≥ 50 µM; against Trichoderma viride, 6.25 µM (≈ 17.2 µg/mL); in [1], ≥ 100 µM.
